Measurements as given in the kinase profiling compilation of Christmann-Franck et al. (2016).

What was measured:
Assay in all cases: radiometric filter-binding kinase assay
EEF2K (human) = EEF2K (human) (UniProt O00418); details: ATP 5 µM
MAPK3 (human) = MAPK3 (human) (UniProt P27361); details: ATP 5 µM
DYRK3 (human) = DYRK3 (human) (UniProt O43781); details: ATP 5 µM
RPS6KA3 KD1 KD2 (human) = RPS6KA3 KD1 KD2 (human) (UniProt P51812); details: ATP 50 µM
PRKCA (human) = PRKCA (human) (UniProt P17252); details: ATP 20 µM
CHEK2 (human) = CHEK2 (human) (UniProt O96017); details: compound 10.0 µM; ATP 20 µM
IKBKE (human) = IKBKE (human) (UniProt Q14164); details: ATP 50 µM
RPS6KA1 KD1 KD2 (human) = RPS6KA1 KD1 KD2 (human) (UniProt Q15418); details: ATP 50 µM
Chain of RPS6KA1 KD1 KD2 (human) (Q15418 whole entry, looked up): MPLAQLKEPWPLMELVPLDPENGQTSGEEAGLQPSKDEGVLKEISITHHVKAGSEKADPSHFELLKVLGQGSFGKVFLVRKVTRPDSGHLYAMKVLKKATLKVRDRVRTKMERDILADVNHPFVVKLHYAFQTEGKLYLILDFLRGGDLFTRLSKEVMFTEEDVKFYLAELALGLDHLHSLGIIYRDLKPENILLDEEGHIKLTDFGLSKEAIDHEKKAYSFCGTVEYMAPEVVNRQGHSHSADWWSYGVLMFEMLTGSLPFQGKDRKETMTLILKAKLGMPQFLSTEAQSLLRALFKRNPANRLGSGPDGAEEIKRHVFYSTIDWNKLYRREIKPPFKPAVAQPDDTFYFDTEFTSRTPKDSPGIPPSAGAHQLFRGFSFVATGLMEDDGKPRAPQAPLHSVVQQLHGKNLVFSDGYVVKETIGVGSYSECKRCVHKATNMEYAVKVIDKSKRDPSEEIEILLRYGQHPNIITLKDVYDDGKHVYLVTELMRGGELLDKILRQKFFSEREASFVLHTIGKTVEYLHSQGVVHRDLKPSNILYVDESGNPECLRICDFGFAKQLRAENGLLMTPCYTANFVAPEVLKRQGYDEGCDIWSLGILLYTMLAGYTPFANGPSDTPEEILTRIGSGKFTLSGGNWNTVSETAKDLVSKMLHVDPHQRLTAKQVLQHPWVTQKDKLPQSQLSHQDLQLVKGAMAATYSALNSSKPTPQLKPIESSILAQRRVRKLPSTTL

AKT1 (human) = AKT1 (human) (UniProt P31749); details: ATP 5 µM
Chain of AKT1 (human) (P31749 whole entry, looked up): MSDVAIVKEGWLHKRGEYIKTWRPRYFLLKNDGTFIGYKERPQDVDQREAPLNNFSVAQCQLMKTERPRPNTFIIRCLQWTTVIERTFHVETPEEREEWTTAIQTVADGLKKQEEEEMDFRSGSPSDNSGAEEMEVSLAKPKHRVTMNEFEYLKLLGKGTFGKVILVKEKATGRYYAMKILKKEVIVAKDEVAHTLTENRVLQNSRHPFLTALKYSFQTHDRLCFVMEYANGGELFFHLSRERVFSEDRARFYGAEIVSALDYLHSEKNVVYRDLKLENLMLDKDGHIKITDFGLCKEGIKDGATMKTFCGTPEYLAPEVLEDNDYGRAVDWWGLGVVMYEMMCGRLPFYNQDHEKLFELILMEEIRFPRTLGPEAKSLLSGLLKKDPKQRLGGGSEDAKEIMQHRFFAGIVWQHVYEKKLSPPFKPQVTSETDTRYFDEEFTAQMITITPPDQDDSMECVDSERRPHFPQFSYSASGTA

PRKCG (human) = PRKCG (human) (UniProt P05129); details: ATP 5 µM
[1] = tested on: AKT1 (human), P31749 [S473D]; details: compound 10.0 µM; ATP 5 µM
Chain of AKT1 (human), P31749 [S473D] (P31749 whole entry S473D, looked up): as the sequence (P31749 whole entry, looked up) above, with S473D counted along it

PIM2 (human) = PIM2 (human) (UniProt Q9P1W9); details: ATP 5 µM
Chain of PIM2 (human) (Q9P1W9 whole entry, looked up): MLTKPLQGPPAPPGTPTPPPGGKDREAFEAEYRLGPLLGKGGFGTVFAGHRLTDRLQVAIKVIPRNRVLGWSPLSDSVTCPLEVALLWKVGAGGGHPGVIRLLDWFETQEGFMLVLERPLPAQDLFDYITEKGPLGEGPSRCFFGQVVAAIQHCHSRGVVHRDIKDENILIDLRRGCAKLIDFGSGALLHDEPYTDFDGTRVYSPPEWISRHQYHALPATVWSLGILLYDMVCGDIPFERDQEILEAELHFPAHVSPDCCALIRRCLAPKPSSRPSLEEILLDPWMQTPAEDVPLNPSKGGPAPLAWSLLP

PIM1 (human) = PIM1 (human) (UniProt P11309); details: ATP 20 µM
[2] = tested on: SGK1 (human), O00141 [S422D]; details: compound 10.0 µM; ATP 20 µM
PAK7 (human) = PAK7 (human) (UniProt Q9P286); details: ATP 20 µM
CAMKK2 (human) = CAMKK2 (human) (UniProt Q96RR4); details: compound 10.0 µM; ATP 20 µM
MELK (human) = MELK (human) (UniProt Q14680); details: ATP 50 µM
CaMK1 (human) = CaMK1 (human) (UniProt Q14012); details: ATP 50 µM
MYLK (human) = MYLK (human) (UniProt Q15746); details: ATP 50 µM
STK3 (human) = STK3 (human) (UniProt Q13188); details: compound 10.0 µM; ATP 20 µM
TBK1 (human) = TBK1 (human) (UniProt Q9UHD2); details: compound 1.0 µM; ATP 50 µM
IKBKB (human) = IKBKB (human) (UniProt O14920); details: compound 10.0 µM; ATP 5 µM
MAPKAPK3 (human) = MAPKAPK3 (human) (UniProt Q16644); details: ATP 20 µM
Chain of MAPKAPK3 (human) (Q16644 whole entry, looked up): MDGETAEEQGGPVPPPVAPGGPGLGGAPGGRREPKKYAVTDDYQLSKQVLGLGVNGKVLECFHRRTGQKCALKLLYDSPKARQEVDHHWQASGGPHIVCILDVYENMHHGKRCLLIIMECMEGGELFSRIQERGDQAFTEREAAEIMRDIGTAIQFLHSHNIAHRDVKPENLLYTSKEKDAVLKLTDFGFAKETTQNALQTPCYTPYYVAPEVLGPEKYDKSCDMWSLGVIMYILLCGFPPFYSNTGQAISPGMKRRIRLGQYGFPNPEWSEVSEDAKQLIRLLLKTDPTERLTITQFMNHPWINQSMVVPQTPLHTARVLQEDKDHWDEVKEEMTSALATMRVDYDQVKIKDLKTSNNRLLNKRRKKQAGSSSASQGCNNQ

SRC (chicken) = details: compound 10.0 µM; ATP 50 µM; accession and sequence are those of the human protein
DYRK2 (human) = DYRK2 (human) (UniProt Q92630); details: ATP 50 µM
Chain of DYRK2 (human) (Q92630 whole entry, looked up): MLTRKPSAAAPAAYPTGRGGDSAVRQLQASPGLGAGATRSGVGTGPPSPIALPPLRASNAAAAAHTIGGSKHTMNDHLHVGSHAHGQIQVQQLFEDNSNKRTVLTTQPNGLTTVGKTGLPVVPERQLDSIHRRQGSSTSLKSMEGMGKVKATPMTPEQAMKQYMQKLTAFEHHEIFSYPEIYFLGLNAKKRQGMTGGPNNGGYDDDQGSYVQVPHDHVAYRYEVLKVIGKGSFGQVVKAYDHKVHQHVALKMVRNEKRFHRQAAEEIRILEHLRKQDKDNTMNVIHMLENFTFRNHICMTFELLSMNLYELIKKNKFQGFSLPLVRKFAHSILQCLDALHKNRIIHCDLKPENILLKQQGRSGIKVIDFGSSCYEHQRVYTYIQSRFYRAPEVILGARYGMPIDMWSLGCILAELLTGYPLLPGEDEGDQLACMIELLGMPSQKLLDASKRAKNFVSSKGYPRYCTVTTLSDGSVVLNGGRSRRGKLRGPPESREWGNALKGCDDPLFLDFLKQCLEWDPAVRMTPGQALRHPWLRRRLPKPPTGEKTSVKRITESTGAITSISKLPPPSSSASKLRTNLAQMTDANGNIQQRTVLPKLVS

ROCK2 (human) = ROCK2 (human) (UniProt O75116); details: compound 10.0 µM; ATP 20 µM
NEK6 (human) = NEK6 (human) (UniProt Q9HC98); details: compound 10.0 µM; ATP 50 µM

Chain of MAPK3 (human) (P27361 whole entry, looked up): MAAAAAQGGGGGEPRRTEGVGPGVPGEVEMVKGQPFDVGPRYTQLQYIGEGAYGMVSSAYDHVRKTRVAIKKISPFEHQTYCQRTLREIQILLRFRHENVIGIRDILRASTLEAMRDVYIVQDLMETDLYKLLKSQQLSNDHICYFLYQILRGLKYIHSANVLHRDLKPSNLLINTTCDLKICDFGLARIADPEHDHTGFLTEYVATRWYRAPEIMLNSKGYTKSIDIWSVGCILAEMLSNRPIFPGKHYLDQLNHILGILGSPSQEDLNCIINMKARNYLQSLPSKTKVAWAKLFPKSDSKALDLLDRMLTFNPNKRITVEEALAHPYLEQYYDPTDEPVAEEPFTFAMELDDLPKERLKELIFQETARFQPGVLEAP
Chain of DYRK3 (human) (O43781 whole entry, looked up): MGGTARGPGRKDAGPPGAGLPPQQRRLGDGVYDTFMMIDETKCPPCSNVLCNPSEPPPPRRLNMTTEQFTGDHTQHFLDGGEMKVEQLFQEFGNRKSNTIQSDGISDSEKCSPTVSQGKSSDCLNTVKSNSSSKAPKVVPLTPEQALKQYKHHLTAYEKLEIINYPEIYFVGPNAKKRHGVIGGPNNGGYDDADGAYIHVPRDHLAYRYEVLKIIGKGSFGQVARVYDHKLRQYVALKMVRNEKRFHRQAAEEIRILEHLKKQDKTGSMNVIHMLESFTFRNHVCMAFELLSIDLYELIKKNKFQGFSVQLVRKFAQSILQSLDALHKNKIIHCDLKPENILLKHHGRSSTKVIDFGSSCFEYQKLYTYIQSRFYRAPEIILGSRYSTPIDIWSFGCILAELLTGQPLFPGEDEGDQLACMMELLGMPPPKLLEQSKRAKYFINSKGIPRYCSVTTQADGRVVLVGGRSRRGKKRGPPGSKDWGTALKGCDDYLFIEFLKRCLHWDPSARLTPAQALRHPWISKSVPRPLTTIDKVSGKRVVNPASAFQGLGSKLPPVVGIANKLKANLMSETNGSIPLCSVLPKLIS

residual activity (EEF2K (human); compound 1.0 µM): 93% | residual activity (EEF2K (human); compound 10.0 µM): 40% | residual activity (MAPK3 (human); compound 1.0 µM): 93% | residual activity (MAPK3 (human); compound 10.0 µM): 100% | residual activity (DYRK3 (human); compound 1.0 µM): 86% | residual activity (DYRK3 (human); compound 10.0 µM): 75% | residual activity (RPS6KA3 KD1 KD2 (human); compound 1.0 µM): 80% | residual activity (RPS6KA3 KD1 KD2 (human); compound 10.0 µM): 74% | residual activity (PRKCA (human); compound 1.0 µM): 108% | residual activity (PRKCA (human); compound 10.0 µM): 87% | residual activity (CHEK2 (human)): 83% | residual activity (IKBKE (human); compound 1.0 µM): 87% | residual activity (IKBKE (human); compound 10.0 µM): 67% | residual activity (RPS6KA1 KD1 KD2 (human); compound 1.0 µM): 98% | residual activity (RPS6KA1 KD1 KD2 (human); compound 10.0 µM): 67% | residual activity (AKT1 (human); compound 1.0 µM): 22% | residual activity (AKT1 (human); compound 10.0 µM): 8% | residual activity (PRKCG (human); compound 1.0 µM): 105% | residual activity (PRKCG (human); compound 10.0 µM): 96% | residual activity [1]: 64% | residual activity (PIM2 (human); compound 1.0 µM): 88% | residual activity (PIM2 (human); compound 10.0 µM): 89% | residual activity (PIM1 (human); compound 1.0 µM): 80% | residual activity (PIM1 (human); compound 10.0 µM): 57% | residual activity [2]: 82% | residual activity (PAK7 (human); compound 1.0 µM): 96% | residual activity (PAK7 (human); compound 10.0 µM): 61% | residual activity (CAMKK2 (human)): 108% | residual activity (MELK (human); compound 1.0 µM): 80% | residual activity (MELK (human); compound 10.0 µM): 68% | residual activity (CaMK1 (human); compound 1.0 µM): 43% | residual activity (CaMK1 (human); compound 10.0 µM): 3% | residual activity (MYLK (human); compound 1.0 µM): 79% | residual activity (MYLK (human); compound 10.0 µM): 11% | residual activity (STK3 (human)): 78% | residual activity (TBK1 (human)): 101% | residual activity (IKBKB (human)): 90% | residual activity (MAPKAPK3 (human); compound 1.0 µM): 86% | residual activity (MAPKAPK3 (human); compound 10.0 µM): 71% | residual activity (SRC (chicken)): 118% | residual activity (DYRK2 (human); compound 1.0 µM): 113% | residual activity (DYRK2 (human); compound 10.0 µM): 118% | residual activity (ROCK2 (human)): 92% | residual activity (NEK6 (human)): 75%
Structure (SMILES): CC(C)(N)c1ccc(-c2nc3ccccc3nc2-c2ccccc2)cc1
